{"source": "ChEMBL document CHEMBL4421719", "about": "“Modulation of k2p channels” (2016)", "format_in_all_cases": "cell-based", "key": {"[1]": {"biological_target": "T1, Potassium channel subfamily K member 5 (Homo sapiens) (UniProt O95279)", "T1 sequence (whole entry)": "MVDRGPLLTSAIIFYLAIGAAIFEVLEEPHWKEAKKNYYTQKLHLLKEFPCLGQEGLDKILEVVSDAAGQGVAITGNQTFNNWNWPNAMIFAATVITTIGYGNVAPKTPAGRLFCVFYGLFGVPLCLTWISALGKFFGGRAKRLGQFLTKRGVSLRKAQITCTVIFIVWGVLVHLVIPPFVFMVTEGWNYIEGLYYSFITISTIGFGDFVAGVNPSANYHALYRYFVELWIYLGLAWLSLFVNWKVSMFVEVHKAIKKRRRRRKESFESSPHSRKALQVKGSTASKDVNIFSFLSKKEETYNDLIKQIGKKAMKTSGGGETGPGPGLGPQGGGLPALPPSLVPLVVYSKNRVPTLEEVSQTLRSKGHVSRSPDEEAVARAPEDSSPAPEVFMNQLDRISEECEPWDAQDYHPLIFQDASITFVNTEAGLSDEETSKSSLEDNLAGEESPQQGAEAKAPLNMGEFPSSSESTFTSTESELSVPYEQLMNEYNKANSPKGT", "assay": "Activation of K2P5.1 (unknown origin) expressed in Xenopus oocytes assessed as effect on channel currents at -80 mV holding potential by two-electrode voltage clamp assay relative to control"}, "[2]": {"system": "Potassium channel subfamily K member 2 (Homo sapiens), O95069 [UNDEFINED MUTATION]", "assay": "Activation of K2P2.1 G137I mutant (unknown origin) expressed in Xenopus oocytes assessed as effect on channel currents at 50 uM at -80 mV holding potential by two-electrode voltage clamp assay"}, "[3]": {"biological_target": "T2, Potassium channel subfamily K member 2 (Homo sapiens) (UniProt O95069)", "T2 sequence (whole entry)": "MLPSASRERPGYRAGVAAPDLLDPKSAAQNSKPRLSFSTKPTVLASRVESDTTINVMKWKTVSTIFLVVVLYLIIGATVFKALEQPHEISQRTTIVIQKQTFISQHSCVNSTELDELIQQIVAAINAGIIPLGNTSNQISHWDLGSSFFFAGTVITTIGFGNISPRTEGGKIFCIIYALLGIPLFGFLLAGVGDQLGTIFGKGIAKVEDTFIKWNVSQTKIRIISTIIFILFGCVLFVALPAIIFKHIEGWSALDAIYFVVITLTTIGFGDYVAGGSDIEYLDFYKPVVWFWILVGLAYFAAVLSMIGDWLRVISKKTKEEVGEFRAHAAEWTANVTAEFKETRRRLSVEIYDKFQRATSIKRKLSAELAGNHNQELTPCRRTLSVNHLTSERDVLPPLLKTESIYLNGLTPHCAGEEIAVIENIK", "assay": "Activation of K2P2.1 (unknown origin) expressed in HEK293T cells assessed as effect on channel currents at -40 mV holding potential by two-electrode voltage clamp assay relative to control"}, "[4]": {"biological_target": "T3, Potassium channel subfamily K member 18 (Homo sapiens) (UniProt Q7Z418)", "T3 sequence (whole entry)": "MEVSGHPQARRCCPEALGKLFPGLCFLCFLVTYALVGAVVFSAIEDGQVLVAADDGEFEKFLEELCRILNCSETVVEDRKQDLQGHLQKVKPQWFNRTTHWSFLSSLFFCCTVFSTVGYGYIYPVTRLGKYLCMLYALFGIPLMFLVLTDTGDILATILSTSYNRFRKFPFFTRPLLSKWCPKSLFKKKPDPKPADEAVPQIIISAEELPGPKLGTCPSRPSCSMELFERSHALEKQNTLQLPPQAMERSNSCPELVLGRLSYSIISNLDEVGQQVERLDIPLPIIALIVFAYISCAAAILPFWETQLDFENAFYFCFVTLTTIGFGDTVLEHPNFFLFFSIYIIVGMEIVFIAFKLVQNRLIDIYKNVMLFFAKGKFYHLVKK", "assay": "Activation of K2P18.1 (unknown origin) expressed in Xenopus oocytes assessed as effect on channel currents at -80 mV holding potential at 100 uM by two-electrode voltage clamp assay relative to control"}, "[5]": {"biological_target": "T2, Potassium channel subfamily K member 2 (Homo sapiens)", "assay": "Reversible activation of K2P2.1 (unknown origin) expressed in HEK293T cells assessed as effect on channel currents at -0 mV holding potential at 5 to 20 uM by two-electrode voltage clamp assay relative to control"}, "[6]": {"biological_target": "T3, Potassium channel subfamily K member 18 (Homo sapiens)", "assay": "Activation of K2P18.1 (unknown origin) expressed in Xenopus oocytes assessed as effect on channel currents at -80 mV holding potential by two-electrode voltage clamp assay relative to control"}, "[7]": {"biological_target": "T2, Potassium channel subfamily K member 2 (Homo sapiens)", "assay": "Activation of K2P2.1 (unknown origin) expressed in Xenopus oocytes assessed as effect on channel currents at -80 mV holding at 100 uM by two-electrode voltage clamp assay relative to control"}, "[8]": {"biological_target": "T2, Potassium channel subfamily K member 2 (Homo sapiens)", "assay": "Activation of K2P2.1 (unknown origin) expressed in HEK293T cell membranes in inside-out patch configuration assessed as effect on channel currents by measuring time of return to baseline following compound washout at 20 uM by two-electrode voltage clamp assay relative to control"}, "[9]": {"biological_target": "T2, Potassium channel subfamily K member 2 (Homo sapiens)", "assay": "Activation of K2P2.1 (unknown origin) expressed in HEK293T cells assessed as effect on channel currents at -40 mV holding potential at 100 uM by two-electrode voltage clamp assay relative to control"}}, "note": "Activity calls are given as the source filed them. The calls are words filed in the database; no cut-off is given here."}
{"smiles": "CC1(C)c2cc(Cl)ccc2N(CCc2nnn[nH]2)c2ccc(Cl)cc21", "values": [{"measurement": "Emax", "setting": "[1]", "value": 1.7}, {"measurement": "Activity", "setting": "[2]", "value": "inactive"}, {"measurement": "Emax", "setting": "[3]", "value": 11.4}, {"measurement": "Emax", "setting": "[4]", "value": 0.9, "unit": "%"}, {"measurement": "Activity", "setting": "[5]", "value": "Active"}, {"measurement": "Emax", "setting": "[6]", "value": 0.9}, {"measurement": "Emax", "setting": "[7]", "value": 11.1, "unit": "%"}, {"measurement": "T1/2", "setting": "[8]", "value": 22, "unit": "s"}, {"measurement": "Emax", "setting": "[9]", "value": 11.4, "unit": "%"}]}
